# Reference: BindingDB's records for doi:10.1038/sj.bjp.0701860 (Universit&Aagrove, 1998)
# Target: Melatonin receptor type 1A (Homo sapiens, UniProt P48039)
# Sequence (P48039 whole entry): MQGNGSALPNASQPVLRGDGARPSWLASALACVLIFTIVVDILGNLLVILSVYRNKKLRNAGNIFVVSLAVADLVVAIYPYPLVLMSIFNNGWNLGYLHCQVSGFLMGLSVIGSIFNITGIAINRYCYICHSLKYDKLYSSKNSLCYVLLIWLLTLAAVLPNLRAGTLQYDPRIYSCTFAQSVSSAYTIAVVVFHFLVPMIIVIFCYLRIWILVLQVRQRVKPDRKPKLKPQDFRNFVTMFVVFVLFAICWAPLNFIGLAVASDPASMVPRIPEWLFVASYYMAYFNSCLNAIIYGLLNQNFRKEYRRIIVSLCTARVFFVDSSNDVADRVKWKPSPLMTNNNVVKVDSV
row,Compound,Ki [nM]
1,"COc1ccc2[nH]c(-c3ccccc3)c(CCNC(C)=O)c2c1 [Melatonin,2-Phenyl]",0.02
2,CC(=O)n1cc(CCN)c2cc(O)ccc21 [NSC_260803],484
